Test system: H446 human small cell lung cancer (SCLC) cells
Test: Mouse xenograft model, H446 SCLC
Assay type: in vivo, mice
Conditions: 2.8 mg/kg, twice a week via i.p. injection, 52 days
Experimental: Example 10: THSD (ALSD and ELSD, respectively) are tested in vivo in a mouse xenograft model for human lung cancer. The example is essentially performed as described for example 9 with the following modifications: human SCLC H446 cancer cells are used, and the tested agents include two statin conjugates (compounds of formula FId/compound 14 or “DZ2b” and FIId/compound 7 or “DZ2a”, respectively, designated “DZ-SIM-Ester” or “DZ-SIM-Amide” in FIG. 10), and a non-statin conjugate (“DZ-DHA”). SCLC H446 cells (1.5×10^6) are subcutaneously implanted on the bilateral flanks of athymic nude mice at age of 5 weeks. 10 days post cell implantation, mice are treated with DZ1 (2.8 mg/kg), SIM (2 mg/kg), DZ1-SIM-Amide/compound 7 or DZ1-SIM-Ester/compound 14 (4 mg/kg), and DZ1-DHA (4 mg/kg, DZ1-dihydroartemisinin ester “DZ1-DHA”, as shown in FIG. 11), twice a week via i.p. injection. (A) Tumor sizes are measured by caliper every four days during the treatment period of 52 days, and volumes are calculated using formula […] as described in example 9 above. Confidence levels are indicated as *P<0.05, **P<0.01, ***P<0.0005.

## CC1(C)C(/C=C/C2=C(Cl)C(=C/C=C3/N(CCCCCC(=O)O)c4ccccc4C3(C)C)/CCC2)=[N+](CCCCS(=O)(=O)[O-])c2ccccc21 [DZ1]
  mean tumor volume / growth inhibition: steep increase in tumor volume

Reference: patent US20230116399A1, “Tumor Homing Statin Derivatives” (Da Zen Theranostics, Inc., priority 2019, published 2023)
